Reference: PMC11249646, “Small-Molecule Disruptors of the Interaction between Calcium- and Integrin-Binding Protein 1 and Integrin αIIbβ3 as Novel Antiplatelet Agents” (ACS Pharmacology & Translational Science, 2024)
Where two headings read alike, the source gives them in different places.

Tests used:
[1] = biological target: T1, CIB1 and αIIb interaction (GST-CIB1 : F-αIIb peptide) (Homo sapiens, UniProt Q99828); assay: FP assay, 384-well format (screen); assay type: binding; set-up: 384-well SCREEN Efficacy (%): concentration or dose not given beside the values; settings: for IC50: read-out: 384-well SCREEN IC50
T1 construct: made in house; host or cells: BL-21 plus RIL cells (E. coli)
T1 sequence (Q99828 1-191): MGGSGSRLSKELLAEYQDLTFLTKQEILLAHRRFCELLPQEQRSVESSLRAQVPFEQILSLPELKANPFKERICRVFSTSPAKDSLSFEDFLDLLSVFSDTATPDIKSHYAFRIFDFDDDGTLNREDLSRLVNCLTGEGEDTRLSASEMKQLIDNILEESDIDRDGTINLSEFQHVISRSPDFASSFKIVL

[2] = biological target: T2, CIB1 and αIIb interaction (CIB1-GST : F-αIIb peptide) (Homo sapiens, UniProt Q99828); assay: FP assay, 1536-well qHTS format (primary and confirmatory screen); assay type: binding
T2 construct: made in house; host or cells: BL-21 plus RIL cells (E. coli)
T2 sequence (Q99828 1-191): T1 sequence (Q99828 1-191)

[3] = biological target: T3, GST-CIB1:F-αIIb interaction (Homo sapiens, UniProt Q99828); assay: Gel-based (in-gel) binding assay
T3 construct: made in house; host or cells: BL-21 plus RIL cells (E. coli)
T3 sequence (Q99828 1-191): T1 sequence (Q99828 1-191)

[4] = biological target: T4, GST-CIB1 : F-scrambled peptide (Homo sapiens, UniProt Q99828); assay: FP scrambled-peptide counter screen, 384-well format; assay type: binding; settings: for IC50: read-out: 384-well COUNTERSCREEN IC50
T4 construct: made in house; host or cells: BL-21 plus RIL cells (E. coli)
T4 sequence (Q99828 1-191): T1 sequence (Q99828 1-191)

[5] = biological target: T5, GST-CIB1 : F-αIIb peptide (Homo sapiens, UniProt Q99828); assay: FP assay in the presence of glutathione (GSH), thiol reactivity; assay type: binding; settings: for GSH/CIB1 IC50 ratio: ratio of GSH (+) IC50 to GSH (-) IC50
T5 construct: made in house; host or cells: BL-21 plus RIL cells (E. coli)
T5 sequence (Q99828 1-191): T1 sequence (Q99828 1-191)

[6] = biological target: T4, GST-CIB1 : F-scrambled peptide; assay: FP scrambled-peptide counter screen, 1536-well format; assay type: binding
[7] = confirmatory screen, qHTS curve class, negative sign = inhibitory curve
[8] = confirmatory screen, read-out: CONFIRMATORY SCREEN IC50
[9] = qHTS primary screen hits, Table S2, negative = inhibition
[10] = qHTS primary screen hits, Table S2, read-out: IC50
[11] = 1 μM GST-CIB1, 400 nM F-αIIb, 60 μM, 1:2, 4-points
[12] = F-scrambled peptide, *: Curve in opposite direction
[13] = FP assay in the presence of glutathione (GSH +), read-out: GSH (+) Assay IC50
[14] = FP assay without glutathione (GSH -), read-out: GSH (-) Assay IC50
[15] = scrambled-peptide counterscreen, qHTS curve class

| Molecule | 384-well SCREEN Efficacy (%) ([1]; F-αIIb peptide) | 384-well SCREEN Confirm? ([1]; F-αIIb peptide, YES/NO) | IC50 ([1]; F-αIIb peptide) [µM] | CONFIRMATORY SCREEN Efficacy (%) [2] [%] | CONFIRMATORY SCREEN Curve Class [2, 7] | IC50 [2, 8] [µM] | Efficacy (%) [2, 9] [%] | IC50 [2, 10] [µM] | Active in Gel Assay? [3, 11] | 384-well COUNTERSCREEN Efficacy (%) ([4]; F-scrambled peptide) | 384-well COUNTERSCREEN Confirm? [4, 12] | IC50 ([4]; F-scrambled peptide) [µM] | IC50 [5, 13] [µM] | IC50 [5, 14] [µM] | GSH/CIB1 IC50 ratio [5] | COUNTERSCREEN Efficacy (%) [6] [%] | COUNTERSCREEN Curve Class [6, 15] | other results |
| --- | --- | --- | --- | --- | --- | --- | --- | --- | --- | --- | --- | --- | --- | --- | --- | --- | --- | --- |
| COc1cccc(-n2c(SCc3cc(=O)oc4cc(O)c(O)cc34)nc3ccccc3c2=O)c1.O=C(O)C(F)(F)F [NCGC00371345-01] | 73 | YES | 11.2 | -90 | -1.1 | 14.1 | -34 | 4.5 | YES | 38 | Inconclusive | 7.1 | 15.9 | 20 | 0.8 | -35 | -2.4 | Confirm and Selective? ([1]; selective toward αIIb: negative curve class and/or IC50 ratio of >3-fold and/or >2-fold efficacy vs scrambled peptide): Inconclusive; Curve Class ([2]; qHTS primary screen hits, Table S2, negative sign = inhibitory curve, several classes where COUNT > 1): -1.4; GSH Assay Result ([5]; thiol reactivity call: No change / Active): No change; IC50 ([6]; scrambled-peptide counterscreen, read-out: COUNTERSCREEN IC50): 8.9 µM |
| thimerosal [NCGC00178879-04, reference compound] |  |  |  | -53 |  |  |  |  |  |  |  |  |  |  |  | 150 |  | 384-well SCREEN Confirm? [1]: YES; 384-well SCREEN Efficacy (%) [1]: 77%; IC50 [1]: 2.8 µM; CONFIRMATORY SCREEN Confirm? [2]: YES; CONFIRMATORY SCREEN Curve Class [2]: -1.2; Curve Class [2]: -1.2; Efficacy (%) [2]: -74%; IC50 ([2]; read-out: CONFIRMATORY SCREEN IC50): 17.8 µM; IC50 ([2]; read-out: IC50): 22.4 µM; Active in Gel Assay? [3]: YES; 384-well COUNTERSCREEN Confirm? [4]: YES; 384-well COUNTERSCREEN Efficacy (%) [4]: 45%; IC50 [4]: 7.1 µM; IC50 ([5]; read-out: GSH (+) Assay IC50): 35.6 µM; IC50 ([5]; read-out: GSH (-) Assay IC50): 0.316 µM; COUNTERSCREEN Confirm? [6]: YES; COUNTERSCREEN Curve Class [6]: 3 |
| O=c1[nH]sc2cc(Cl)ccc12 [NCGC00262908-01, ticlatone, reference compound] | 79 | YES | 0.562 |  | -1.2 | 2.8 | -68 | 3.5 | YES | 95 | YES | > 120 | 10.3 | 0.234 | 44.0 |  | 4 | CONFIRMATORY SCREEN Confirm? ([2]; confirmatory screen, YES/NO call): YES; CONFIRMATORY SCREEN Efficacy (%) ([2]; confirmatory screen, negative = inhibition): -50%; Curve Class ([2]; qHTS primary screen hits, Table S2, negative sign = inhibitory curve): -1.2; shift in potency in the presence of GSH ([5]; with vs without 10 μM reduced GSH): right-shift in potency; COUNTERSCREEN Efficacy (%) ([6]; scrambled-peptide counterscreen): 10%; COUNTERSCREEN Confirm? ([6]; scrambled-peptide counterscreen, YES/NO call): YES |
